Consider one compound from US20230372313A1, “METHODS FOR REDUCING GLYCOSPHINGOLIPID CONCENTRATION IN BRAIN TISSUE AND METHODS OF TREATMENT OF NEURODEGENERATIVE DISEASES INVOLVING THE SAME” (GENZYME CORPORATION, priority 2020, published 2023).

The subject of data set [1] is participants with early-stage PD carrying a GBA mutation. The data set can be described thus: MDS-UPDRS (parts II and III) scores in OFF state. The class given is in vivo, human. Conditions: Combined Japan + ROW, all Compound 2 doses, N = 22, OFF state. On the procedure: MDS-UPDRS (parts II [motor experiences of daily living; 13 items] and III [motor examination; 18 items]) scores are reported through Week 8. The MDS-UPDRS scale was assessed during the OFF state, with no PD medication taken for ≥12 hours prior.
The changes from baseline in MDS-UPDRS (parts II and III) scores at week 8 were assessed for participants in part 1 of the clinical study described in Example 2.

Data set [2] in a line: CSF concentration of Compound 2 in PD participants (LC-MS/MS). The class given is in vivo, human. To be noted: for CSF concentration, mean: week 4, 2-4 h postdose; for CSF concentration, Fold increase vs low dose: week 4. On the procedure:
Participants were randomised to 3 doses of once-daily orally administered Compound 2 or placebo, in sequential cohort design, and were followed up to 36 weeks (52 weeks for Japanese participants). Participants in the low-dose group received 4 mg of Compound 2 as a once daily oral dose; participants in the mid-dose group received 8 mg of Compound 2 a once daily oral dose; and participants in the high-dose group received 15 mg of Compound 2 a once daily oral dose.
The secondary outcome was to evaluate the pharmacokinetic profile of Compound 2 in plasma and cerebrospinal fluid (CSF) over a 4-week period. Plasma pharmacokinetic parameters included maximum plasma concentration (Cmax), time to Cmax (tmax), and area under the plasma concentration versus time curve from 0 to 24 h (AUC0-24). All parameters were assessed at Week 0 and Week 4 after treatment. In addition, AUC0-48 was assessed at Week 0, trough plasma concentration observed just before treatment administration during repeated dosing (Ctrough) was assessed at Weeks 2, 4, and 8 (FIG. 3), and total systemic clearance from plasma at steady state (CLSS/F) was assessed at Week 4. Plasma samples were collected at 1 hour pre-dose and 1, 2, 4, 8, 24, and 48 hours postdose. Compound 2 concentration in plasma was determined using a liquid chromatography tandem mass spectrometry method with a lower limit of quantification of 0.500 ng/mL. CSF samples were collected by lumbar puncture during the screening period (within 14 days prior to randomisation) or on the day of randomisation, and at Week 4, within 2 to 4 hours postdose. Compound 2 concentration in CSF was determined using a liquid chromatography tandem mass spectrometry method with a lower limit of quantification of 0.100 ng/mL.

With `CC(C)(NC(=O)O[C@@H]1CN2CCC1CC2)c1csc(-c2ccc(F)cc2)n1` [Compound 2, (S)-quinuclidin-3-yl (2-(2-(4-fluorophenyl)thiazol-4-yl)propan-2-yl)carbamate], the “MDS-UPDRS (part II + III) score, Change from baseline at week 8 (mean)” value in data set [1] is recorded as −2.9. Moreover, the “CSF concentration, mean” value in data set [2] (Japan, High 15 mg once daily oral, n = 3) worked out at 10.1 ng/mL; in data set [2] (Japan, Low 4 mg once daily oral, n = 3) it was 2.11 ng/mL; in data set [2] (Japan, Mid 8 mg once daily oral, n = 3), 4.33 ng/mL; in data set [2] (ROW, High 15 mg once daily oral, sample not collected for 1 of n = 4), 5.96 ng/mL; in data set [2] (ROW, Low 4 mg once daily oral, 1 of n = 4 not included), 1.85 ng/mL; in data set [2] (ROW, Mid 8 mg once daily oral, 2 of n = 5 not included), 3.15 ng/mL. In addition, the “CSF concentration, Fold increase vs low dose” value worked out at 4.79 fold in data set [2] (Japan, High 15 mg vs Low 4 mg); 2.05 fold in data set [2] (Japan, Mid 8 mg vs Low 4 mg); 3.22 fold in data set [2] (ROW, High 15 mg vs Low 4 mg); 1.70 fold in data set [2] (ROW, Mid 8 mg vs Low 4 mg). For the same compound, in data set [2] (Japanese and ROW cohorts, 4, 8, 15 mg), the “increase of Compound 2 concentration in CSF with dose” value was “close to dose-proportional manner”.
